Measurements published in US10501518B2 (priority 2013, dated 2019).
Starred links: 1 amine or outer side, 2 acyl side, 3 side chain; linkers in the order of their positions; H or OH if unused. Non-standard residues stand in square brackets, D forms with d. Residues, ends and D or L forms follow the SMILES beside them. X13 = O=C([C@H]1CNC[C@@H]1N[*:1])[*:2]

Tests used:
WT human PTHR-1 = target: T1, WT human PTHR-1 (Homo sapiens, UniProt Q03431); assay: cAMP GloSensor dose-response in GP-2.3 cells expressing human PTHR-1; assay type: cell-based; conditions: for cAMP (hPTHR-1) Max: luminescence counts per second relative to PTH(1-34); for cAMP (hPTHR-1) Max / Max: 12-16 minutes after ligand addition; for Max: Table 6, mean ± SEM
T1 construct: bioactivity of the resulting compound in full-length hPTHR-1 and a truncated version; expressed in transfected cells
T1 sequence (Q03431 27-593): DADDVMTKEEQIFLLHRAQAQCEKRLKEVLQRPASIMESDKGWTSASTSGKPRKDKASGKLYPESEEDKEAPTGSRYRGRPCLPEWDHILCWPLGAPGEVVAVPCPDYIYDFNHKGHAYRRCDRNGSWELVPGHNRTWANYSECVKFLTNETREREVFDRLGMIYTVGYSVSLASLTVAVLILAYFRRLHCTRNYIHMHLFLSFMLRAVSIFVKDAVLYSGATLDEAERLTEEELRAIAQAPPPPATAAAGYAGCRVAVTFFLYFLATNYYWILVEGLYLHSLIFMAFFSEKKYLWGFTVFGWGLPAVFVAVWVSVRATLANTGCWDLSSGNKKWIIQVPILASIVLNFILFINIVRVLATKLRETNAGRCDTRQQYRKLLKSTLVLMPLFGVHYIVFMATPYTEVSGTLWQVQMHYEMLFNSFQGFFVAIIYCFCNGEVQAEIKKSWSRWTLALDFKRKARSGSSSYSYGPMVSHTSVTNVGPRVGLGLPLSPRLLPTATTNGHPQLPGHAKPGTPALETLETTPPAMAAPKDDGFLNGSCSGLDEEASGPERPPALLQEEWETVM
Summary of the method: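 Confluent cells preloaded with 0.5 mM d-luciferin at room temperature until luminescence baseline stabilised (30 min), then given varying agonist concentrations. Luminescence time course recorded after α/β-peptide addition. Means ±SEM of n>4 experiments, each in duplicate.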

RG form of human PTHR-1 = target: T2, RG form of human PTHR-1 (Homo sapiens, UniProt Q03431); assay: Radio-ligand competition binding to RG form of human PTHR-1 (COS-7 membranes, 125I-M-PTH(1-15) tracer, high affinity Gαs mutant); conditions: Table 1; 125I-M-PTH(1-15) tracer, Gαs mutant; read-out: RG IC50, nM, Binding (hPTHR-1)
T2 construct: expressed in transfected cells; host or cells: COS-7
T2 sequence (Q03431 27-593): T1 sequence (Q03431 27-593)
Source text: (§1) Data are means (±SEM) of n≥4 experiments, each performed in duplicate.

WT rat PTHR-1 = target: T3, WT rat PTHR-1 (Rattus norvegicus, UniProt P25961); assay: cAMP GloSensor dose-response in GR-35 cells expressing rat PTHR-1; assay type: cell-based; conditions: Table 7; GR-35 cells, 12-16 minutes after ligand addition; mean ± SEM
T3 construct: expressed in transfected cells
T3 sequence (P25961 27-591): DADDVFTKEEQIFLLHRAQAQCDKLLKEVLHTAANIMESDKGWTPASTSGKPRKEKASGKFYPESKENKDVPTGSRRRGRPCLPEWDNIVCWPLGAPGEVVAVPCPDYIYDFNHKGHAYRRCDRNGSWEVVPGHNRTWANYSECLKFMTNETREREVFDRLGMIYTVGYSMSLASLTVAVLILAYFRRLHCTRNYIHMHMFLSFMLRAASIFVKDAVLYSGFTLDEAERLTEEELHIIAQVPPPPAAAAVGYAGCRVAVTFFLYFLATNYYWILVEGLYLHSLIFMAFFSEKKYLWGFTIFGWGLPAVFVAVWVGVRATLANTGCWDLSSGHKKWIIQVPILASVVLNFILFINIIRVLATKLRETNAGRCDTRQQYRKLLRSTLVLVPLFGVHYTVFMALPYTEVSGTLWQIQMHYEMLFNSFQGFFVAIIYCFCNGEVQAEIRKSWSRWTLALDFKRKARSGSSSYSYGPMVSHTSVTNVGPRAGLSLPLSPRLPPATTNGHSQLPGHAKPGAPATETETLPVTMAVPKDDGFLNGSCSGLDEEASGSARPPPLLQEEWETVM

RG form of rat PTHR-1 = target: T4, RG form of rat PTHR-1 (Rattus norvegicus, UniProt P25961); assay: Radio-ligand competition binding to RG form of rat PTHR-1; conditions: Table 5; rat PTHR-1; mean ± SEM; read-out: RG -log (IC50) (converted)
T4 construct: expressed in transfected cells; host or cells: COS-7
T4 sequence (P25961 27-591): T3 sequence (P25961 27-591)
Source text: as §1

delNT PTHR1 = target: T5, delNT PTHR1 (Homo sapiens, UniProt Q03431, DEL24-181); assay: cAMP-inducing potency at truncated receptor delNT PTHR1; assay type: cell-based; conditions: Table 8; EC50 relative to PTH(1-34)
T5 construct: expressed in transfected cells
T5 sequence (Q03431 with tags, fused parts or gaps DEL24-181): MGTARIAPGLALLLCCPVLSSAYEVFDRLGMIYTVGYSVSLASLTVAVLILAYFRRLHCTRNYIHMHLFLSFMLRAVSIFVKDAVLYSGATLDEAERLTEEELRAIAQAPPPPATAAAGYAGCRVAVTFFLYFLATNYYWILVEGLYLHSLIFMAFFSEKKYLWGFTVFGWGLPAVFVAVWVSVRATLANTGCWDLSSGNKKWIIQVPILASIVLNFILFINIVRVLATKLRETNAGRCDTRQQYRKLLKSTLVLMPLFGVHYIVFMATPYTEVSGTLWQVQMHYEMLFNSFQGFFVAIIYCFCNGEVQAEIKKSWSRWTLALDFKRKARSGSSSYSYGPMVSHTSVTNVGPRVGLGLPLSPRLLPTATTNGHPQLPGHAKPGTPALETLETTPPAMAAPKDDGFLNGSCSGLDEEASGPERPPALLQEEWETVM

Row | EC50 (WT human PTHR-1; Table 1, GP-2.3 cells, read-out: cAMP (hPTHR-1) EC50) | cAMP (hPTHR-1) Max (WT human PTHR-1; Table 1) | IC50 (RG form of human PTHR-1) | IC50 (RG form of rat PTHR-1) | Fold PTH, nM (deINT PTHR1) (delNT PTHR1) | hPTHR1 EC50, nM (Means ± SEM) (WT human PTHR-1; Table 8, cAMP-inducing potency, N-terminal modifications) | SMILES | Max (WT human PTHR-1; GP-2.3 cells) | Max (WT rat PTHR-1)
1 | 200 pM | 1.01 | 0.4 nM |  |  |  | CC[C@H](C)[C@H](NC(=O)[C@H](CCC(=O)O)NC(=O)[C@H](CO)NC(=O)[C@@H](NC(=O)[C@@H](N)CO)C(C)C)C(=O)N[C@@H](CCC(N)=O)C(=O)N[C@@H](CC(C)C)C(=O)N[C@@H](CCSC)C(=O)N[C@@H](Cc1c[nH]cn1)C(=O)N[C@@H](CC(N)=O)C(=O)N[C@@H](CC(C)C)C(=O)NCC(=O)N[C@@H](CCCCN)C(=O)N[C@@H](Cc1c[nH]cn1)C(=O)N[C@@H](CC(C)C)C(=O)N[C@@H](CC(N)=O)C(=O)N[C@@H](CO)CC(=O)N[C@@H](CCSC)C(=O)N[C@@H](CCC(=O)O)C(=O)N[C@@H](CCCNC(=N)N)C(=O)N[C@H](CC(=O)N[C@@H](CCC(=O)O)C(=O)N[C@@H](Cc1c[nH]c2ccccc12)C(=O)N[C@@H](CC(C)C)C(=O)N[C@@H](CCCNC(=N)N)CC(=O)N[C@@H](CCCCN)C(=O)N[C@@H](CCCCN)C(=O)N[C@@H](CC(C)C)C(=O)N[C@@H](CCC(N)=O)CC(=O)N[C@@H](CC(=O)O)C(=O)N[C@H](C(=O)N[C@@H](Cc1c[nH]cn1)C(=O)N[C@@H](CC(N)=O)CC(=O)N[C@@H](Cc1ccccc1)C(N)=O)C(C)C)C(C)C [C5] | 219 ± 39 luminescence counts per second × 10^−3 | 48 ± 17 luminescence counts per second × 10−3
2 |  | 1.03 |  | 1740 pM |  |  | CC[C@H](C)[C@H](NC(=O)[C@H](CCC(=O)O)NC(=O)[C@H](CO)NC(=O)[C@@H](NC(=O)[C@@H](N)CO)C(C)C)C(=O)N[C@@H](CCC(N)=O)C(=O)N[C@@H](CC(C)C)C(=O)N[C@@H](CCSC)C(=O)N[C@@H](Cc1c[nH]cn1)C(=O)N[C@@H](CC(N)=O)C(=O)N[C@@H](CC(C)C)C(=O)NCC(=O)N[C@@H](CCCCN)C(=O)N[C@@H](Cc1c[nH]cn1)C(=O)N[C@@H](CC(C)C)C(=O)N[C@@H](CC(N)=O)C(=O)N[C@@H](CO)C(=O)N[C@@H](CCSC)CC(=O)N[C@@H](CCC(=O)O)C(=O)N[C@@H](CCCNC(=N)N)C(=O)N[C@H](C(=O)N[C@@H](CCC(=O)O)CC(=O)N[C@@H](Cc1c[nH]c2ccccc12)C(=O)N[C@@H](CC(C)C)C(=O)N[C@@H](CCCNC(=N)N)C(=O)N[C@@H](CCCCN)CC(=O)N[C@@H](CCCCN)C(=O)N[C@@H](CC(C)C)C(=O)N[C@@H](CCC(N)=O)C(=O)N[C@@H](CC(=O)O)CC(=O)N[C@H](C(=O)N[C@@H](Cc1c[nH]cn1)C(=O)N[C@@H](CC(N)=O)C(=O)N[C@H](CC(N)=O)Cc1ccccc1)C(C)C)C(C)C [D5] | 223 ± 36 luminescence counts per second × 10^−3 | 43 ± 17 luminescence counts per second × 10−3
3 |  |  |  |  | 87 | No activity | CC[C@H](C)[C@H](NC(=O)[C@H](CCC(=O)O)NC(=O)[C@H](CO)NC(=O)[C@@H](NC(=O)[C@@H](N)CO)C(C)C)C(=O)N[C@@H](CCC(N)=O)C(=O)N[C@@H](CC(C)C)C(=O)N[C@@H](CCSC)C(=O)N[C@H]1CNC[C@@H]1C(=O)N[C@@H](CC(N)=O)C(=O)N[C@@H](CC(C)C)C(=O)NCC(=O)N[C@@H](CCCCN)C(=O)N[C@@H](Cc1c[nH]cn1)C(=O)N[C@@H](CC(C)C)C(=O)N[C@@H](CC(N)=O)C(=O)N[C@@H](CO)C(=O)N[C@@H](CCSC)C(=O)N[C@@H](CCC(=O)O)C(=O)N[C@@H](CCCNC(=N)N)C(=O)N[C@H](C(=O)N[C@@H](CCC(=O)O)C(=O)N[C@@H](Cc1c[nH]c2ccccc12)C(=O)N[C@@H](CC(C)C)C(=O)N[C@@H](CCCNC(=N)N)C(=O)N[C@@H](CCCCN)C(=O)N[C@@H](CCCCN)C(=O)N[C@@H](CC(C)C)C(=O)N[C@@H](CCC(N)=O)C(=O)N[C@@H](CC(=O)O)C(=O)N[C@H](C(=O)N[C@@H](Cc1c[nH]cn1)C(=O)N[C@@H](CC(N)=O)C(=O)N[C@@H](Cc1ccccc1)C(N)=O)C(C)C)C(C)C [APC(9)] (H-SVSEIQLM[X13]NLGKHLNSMERVEWLRKKLQDVHNF-NH2; N-terminus assumed) |  | 
